From paper PMC4999848 (Toxins, 2016)
Values joined by “and” are separate entries in the source; they are usually repeats but may differ in a detail not shown here. Equal entries are not always repeated.

Assays:
pancreatin = assay: Deacetylation of 3/15ADON by pancreatin; format: in vitro ADME, porcine; settings: pancreatin 1.23 mg/mL, PBS pH 7.4, 37 °C, substrate 100 μM
Experimental: (§1) Stock solutions of DON, 3ADON and 15ADON at 2 mg/mL were prepared in absolute ethanol and stored at −20 °C. For deacetylation assay, 3- or 15ADON were incubated with cells, explants, bacteria or digestive enzymes after being diluted in PBS^++ at a final concentration of 100 μM. PBS^++ solution containing only ethanol (at 1.5% final concentration) or DON (at 100 μM) were used in parallel as negative and positive control, respectively. For cells and explants, deacetylation assay take place in 6-well plates, wells being filled with 2 mL of PBS^++ containing either ethanol, DON, 3- or 15ADON. For fecal bacteria and digestive enzyme assay, deacetylation assay was conducted in 2 mL Eppendorf tubes filled with 1.5 mL of PBS^++ containing either ethanol, DON, 3- or 15ADON. In vitro intestinal digestion by luminal enzymes was performed using porcine enzymes from Sigma-Aldrich and physiological conditions. […] In all cases, aliquots of the reaction solution were collected immediately (i.e., “time zero” sample) or after the indicated time period at 37 °C and analyzed by HPLC. […]
(§2) Deacetylation was monitoring both in term of disappearance of 3- or 15ADON and formation of DON. […] Quantification was based on calibration with the corresponding standard using Millinium Software (Waters, Saint Quentin Falavier, France).

trypsin = target: T1, trypsin (Sus scrofa, UniProt P00761); assay: Deacetylation of 3/15ADON by trypsin; format: in vitro ADME, porcine; settings: trypsin 0.35 mg/mL, PBS pH 7.4, 37 °C, substrate 100 μM
T1 construct: purchased Sigma-Aldrich
Experimental: as §1, §2

liver explant = assay: Deacetylation of 3/15ADON by human liver explants; format: in vitro ADME; settings: for % of deacetylation: hepatic explants, 6 h incubation, 100 μM; for Disappearance of 3/15ADON, specific activity: liver explant, 37 °C, substrate 100 μM; for Contribution to total deacetylation activity: Liver: percentage of sum of specific activities (Figure 8)
Source text: Human tissue samples were obtained from patients undergoing surgery at the Hospital Nord of Marseille, unit of general and gastrointestinal surgery according to a collaborative “clinical transfer” project. The procedures were approved by the French ethic committee (CODECOH n° DC-2011-1319). Patients were from both genders (six men, three women), 31–74 years of age, all of European origin. All patients agree to use their tissues for research purposes. Samples were taken from macroscopically unaffected area as identified by the surgeon for intestinal samples or the pathologist for liver resections. Diagnoses leading to surgery were carcinoma for intestine or liver. After resection, the specimens were placed in ice-cold non-sterile Krebs solution implemented and transferred to the school of medicine on the same campus within 5 min, composition of the Krebs solution being previously described. The tissues were rinsed several times and maintained in oxygenated Krebs during 1 h for recovery before final dissection. Intestinal and hepatic resections were extensively washed and maintained in ice-cold culture media containing 1% streptomycin/penicillin solution and 50 μg/mL gentamycin. Tissues were cleaned from vascular vessels and conjunctive tissue using forceps under binocular microscope. In case of intestinal resection, muscularis and plexus were removed and only epithelial layer was kept. Intestinal and hepatic explants (wet weight of 20–30 mg) were then isolated from the cleaned resections using surgical punch (diameter of […]). […] Finally, the explants were washed 3 times with PBS^++ and transferred into 6-well plates before being used for deacetylation assay.
Stock solutions of DON, 3ADON and 15ADON at 2 mg/mL were prepared in absolute ethanol and stored at −20 °C. For deacetylation assay, 3- or 15ADON were incubated with cells, explants, bacteria or digestive enzymes after being diluted in PBS^++ at a final concentration of 100 μM. PBS^++ solution containing only ethanol (at 1.5% final concentration) or DON (at 100 μM) were used in parallel as negative and positive control, respectively. For cells and explants, deacetylation assay take place in 6-well plates, wells being filled with 2 mL of PBS^++ containing either ethanol, DON, 3- or 15ADON. For fecal bacteria and digestive enzyme assay, deacetylation assay was conducted in 2 mL Eppendorf tubes filled with 1.5 mL of PBS^++ containing either ethanol, DON, 3- or 15ADON. In vitro intestinal digestion by luminal enzymes was performed using porcine enzymes from Sigma-Aldrich and physiological conditions. Briefly, 3- or 15ADON were incubated with pepsin (at 1.6 mg/mL corresponding to 900 U/mL), trypsin (at 0.35 mg/mL corresponding to 6000 U/mL), pancreatic lipase (at 0.75 mg/mL corresponding to 18 U/mL) or pancreatin (at 1.23 mg/mL, lipase activity >10 U/mL, protease activity >100 U/mL, amylase activity >100 U/mL). Except for pepsin for which the digestion was conducted in HCl solution at 10 mM (pH 2.3), in vitro digestion was performed in PBS^++ (pH 7.4). Finally, deacetylation assay was also performed with commercial pooled S9 fractions from human liver, small intestine and kidneys as well as with pure recombinant human CES1 and CES2. S9 fractions and CES1/2 were used at 0.1 mg/mL and 5 μg/mL (corresponding to CES activity >20 U/mL), respectively. In all cases, aliquots of the reaction solution were collected immediately (i.e., “time zero” sample) or after the indicated time period at 37 °C and analyzed by HPLC. […] In all cases, the experiments were conducted in triplicate (n = 3).

A498 cells = assay: Deacetylation of 3/15ADON by A498 cells; format: in vitro ADME, human
Experimental: (§3) A498, Caco-2, T84 and HepG2 cells were used as models of human renal, small intestinal, colonic and hepatic cells, respectively. Cells were routinely grown in culture media (Dulbecco’s Modified Eagle Medium (DMEM), DMEM:F12 mixture and Minimum Essential Media (MEM) for A498/Caco-2, T84 and HepG2 cells, respectively) supplemented with 10% fetal calf serum and 1% antibiotics (streptomycin–penicillin solution). Cells were grown in 25 cm^2 ventilated flask maintained at 37 °C in a 5% CO2 incubator. Cells were routinely passed using trypsin-EDTA solution. For deacetylation experiments, cells were seeded onto 6-well plates at an initial density of 200,000 cells/cm^2. HepG2 and A498 were used 3–4 days post-seeding when confluence was reached. Caco-2 and T84 cells were let to differentiate for 10–14 days post-seeding before being used. In all cases, cells were washed three times with sterile phosphate buffer saline PBS^++ (PBS containing 100 mg/L of calcium and magnesium salts) before deacetylation assay.
Stock solutions of DON, 3ADON and 15ADON at 2 mg/mL were prepared in absolute ethanol and stored at −20 °C. […] In all cases, aliquots of the reaction solution were collected immediately (i.e., “time zero” sample) or after the indicated time period at 37 °C and analyzed by HPLC. […]

Caco-2 cells = assay: Deacetylation of 3/15ADON by Caco-2 cells; format: in vitro ADME, human; settings: for Disappearance of 3/15ADON, specific activity: Caco-2, 37 °C, substrate 100 μM; for % deacetylated: Caco-2, 6 h incubation, 100 μM
Experimental: as §3
Stock solutions of DON, 3ADON and 15ADON at 2 mg/mL were prepared in absolute ethanol and stored at −20 °C. For deacetylation assay, 3- or 15ADON were incubated with cells, explants, bacteria or digestive enzymes after being diluted in PBS^++ at a final concentration of 100 μM. PBS^++ solution containing only ethanol (at 1.5% final concentration) or DON (at 100 μM) were used in parallel as negative and positive control, respectively. For cells and explants, deacetylation assay take place in 6-well plates, wells being filled with 2 mL of PBS^++ containing either ethanol, DON, 3- or 15ADON. For fecal bacteria and digestive enzyme assay, deacetylation assay was conducted in 2 mL Eppendorf tubes filled with 1.5 mL of PBS^++ containing either ethanol, DON, 3- or 15ADON. In vitro intestinal digestion by luminal enzymes was performed using porcine enzymes from Sigma-Aldrich and physiological conditions. Briefly, 3- or 15ADON were incubated with pepsin (at 1.6 mg/mL corresponding to 900 U/mL), trypsin (at 0.35 mg/mL corresponding to 6000 U/mL), pancreatic lipase (at 0.75 mg/mL corresponding to 18 U/mL) or pancreatin (at 1.23 mg/mL, lipase activity >10 U/mL, protease activity >100 U/mL, amylase activity >100 U/mL). Except for pepsin for which the digestion was conducted in HCl solution at 10 mM (pH 2.3), in vitro digestion was performed in PBS^++ (pH 7.4). Finally, deacetylation assay was also performed with commercial pooled S9 fractions from human liver, small intestine and kidneys as well as with pure recombinant human CES1 and CES2. […] In all cases, aliquots of the reaction solution were collected immediately (i.e., “time zero” sample) or after the indicated time period at 37 °C and analyzed by HPLC. […]

T1 sequence (P00761 9-231): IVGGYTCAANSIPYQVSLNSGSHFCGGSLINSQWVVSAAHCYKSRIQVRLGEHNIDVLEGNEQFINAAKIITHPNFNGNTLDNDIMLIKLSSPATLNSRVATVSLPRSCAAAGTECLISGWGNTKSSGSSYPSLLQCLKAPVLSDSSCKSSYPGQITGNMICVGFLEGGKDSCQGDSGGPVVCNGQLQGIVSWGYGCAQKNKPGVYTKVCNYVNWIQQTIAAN

| Compound | Disappearance of 3/15ADON, specific activity (pancreatin) [pmol/min/mg] | Disappearance of 3/15ADON, specific activity (trypsin) [pmol/min/mg] | % of deacetylation (liver explant) | Disappearance of 3/15ADON, specific activity (liver explant) | Contribution to total deacetylation activity: Liver (liver explant) [%] | Disappearance of 3/15ADON, specific activity (A498 cells; A498, 37 °C, substrate 100 μM) | Disappearance of 3/15ADON, specific activity (Caco-2 cells) | % deacetylated (Caco-2 cells) | Activity of renal cells on 15ADON (A498 cells; in words) |
| --- | --- | --- | --- | --- | --- | --- | --- | --- | --- |
| CC(=O)O[C@@H]1C[C@]2(C)[C@@]3(CO)[C@H](O)C(=O)C(C)=C[C@H]3O[C@H]1[C@@]21CO1 [3ADON, 3-acetyldeoxynivalenol] | 24 ± 16 | 57 ± 19 | 54.6% ± 15.4% | 714 pmol/min/mg and 714 ± 198 pmol/min/mg | 56 | 79 pmol/min/mg and 79 ± 46 pmol/min/mg | 479 pmol/min/mg and 479 ± 97 pmol/min/mg | 69.1% ± 14.3% |  |
| CC(=O)OC[C@]12[C@H](O)C(=O)C(C)=C[C@H]1O[C@@H]1[C@H](O)C[C@@]2(C)[C@]12CO2 [15ADON, 15-acetyldeoxynivalenol] | 26 ± 17 | 94 ± 62 | 24.6% ± 2.8% | 330 pmol/min/mg and 330 ± 34 pmol/min/mg | 52 |  | 152 pmol/min/mg and 152 ± 38 pmol/min/mg | 22.4% ± 5.5% | virtually inactive |
